# Experimental data taken from ChEMBL document CHEMBL5303711, “ECBD screening data for assay EOS300108” (2023).
# The source made the active and inactive calls. No rule for the calls is given here.
# Experiment: Cytotoxicity activity against human HepG2 cells assessed by CellTiter-Glo luminescent cell viability assay.
# Format: toxicity, cell-based
# Set-up: assay stage confirmatory assay, source tissue liver
# Details: HepG2 cells, read-out: IC50 relative
row,Structure (SMILES),CC50
1,O=C(Nc1nc(-c2ccccc2)cs1)C1CCN(S(=O)(=O)c2cccnc2)CC1,6 µM (active)
2,CC(C)n1c(/C=C/[C@@H](O)C[C@@H](O)CC(=O)O)c(-c2ccc(F)cc2)c2ccccc21 [LESCOL],7.4 µM (active)
3,C[C@@H](NC1CCN(c2ccc(F)c(F)c2)CC1)[C@@H](O)c1ccc(O)cc1,14.6 µM (active)
4,COc1cc(OC)cc(N(CCNC(C)C)c2ccc3ncc(-c4cnn(C)c4)nc3c2)c1 [ERDAFITINIB],3.9 µM (active)
5,Nc1ncnc2c1c(-c1cnc3[nH]ccc3c1)nn2C1CCCC1,1.6 µM (active)
6,CCn1c(=O)c(-c2ccc(-c3cncs3)cc2Cl)cc2cnc(Nc3ccc(N4CCN(C)CC4)cc3)nc21,29 µM (inactive)
7,CC(C)c1c2cc(-c3ccnc(N[C@H]4CC[C@H](NC5CCOCC5)CC4)n3)ccc2nn1C,0.1 µM (active)
8,COc1cccc(NC(=O)Nc2nc3ccc(S(C)(=O)=O)cc3s2)c1,18.1 µM (inactive)
9,Nc1ccc2c(c1)C(=O)C(=O)c1ccccc1-2,4.2 µM (active)
10,CC(C(=O)NCCN(C)C)C1CCN(C(=O)c2cc3cc(Cl)ccc3[nH]2)CC1 (configuration not stated),6.3 µM (active)
11,O=C(Nc1ccc2c(c1)S(=O)(=O)C=C2)c1ncoc1-c1ccco1,10.9 µM (inactive)
12,CN(C)c1ccc(C(=O)NCCCCCCC(=O)NO)cc1,0.9 µM (active)
13,O=C(N/N=C/c1ccccc1O)c1ccncc1 [SALINAZID],9.5 µM (active)
14,CCn1c(=O)c2sc(N3CCCC3)nc2n(CC(=O)Nc2ccc(OC)cc2)c1=O,31.4 µM (inactive)
15,CCCS(=O)(=O)N1CCc2ccc(NC(=O)Nc3ccc(SC)cc3)cc21,18.2 µM (inactive)
16,CCN1CCN(C(=O)C2CCN(c3nn4cc(-c5ccc(C)cc5)nc4s3)CC2)CC1,9.5 µM (active)
17,COc1ccc(C(=O)N(C)C)cc1NC(=O)c1ccc2ccccc2n1,8.9 µM (active)
18,Cn1cc(C2=C(c3cn(CCCSC(=N)N)c4ccccc34)C(=O)NC2=O)c2ccccc21,1.4 µM (active)
19,CC(=O)N1c2ccc(S(=O)(=O)N3CCC(C(=O)NCc4cccs4)CC3)cc2CC1C (configuration not stated),33.9 µM (inactive)
20,COc1ccc(NS(=O)(=O)c2ccc(-c3cnc(C)o3)cc2)cc1OC,3.6 µM (active)
21,CC1(C)Cc2c(sc(NC(=O)NCc3cccnc3)c2C(N)=O)CO1,12.4 µM (inactive)
22,CN(C)CCCOc1ccc(-c2ccc3ncc4c(c3c2)n(C2CCOCC2)c(=O)n4C)cn1,7.4 µM (active)
23,COc1ccc2c(c1)OC(C)(C)CN(C(=O)Nc1nc(C)no1)C2,11.9 µM (active)

row,Structure (SMILES),CC50
1,Cc1ccc(NC(=O)c2ccc(CN3CCN(C)CC3)cc2)cc1Nc1nccc(-c2cccnc2)n1 [IMATINIB],7.3 µM (active)
2,Oc1ccc2[nH]ncc2c1Br,7.1 µM (active)
3,CN1CCN(C)C(CNc2ncc(F)c(N(C)C)n2)C1 (configuration not stated),50 µM (inactive)
4,N#Cc1ccnc(Nc2cc(C3CCN(C4COC4)CC3)cc(N3CCC(F)(F)C3)n2)c1,1.9 µM (active)
5,CC1Oc2ccc(S(=O)(=O)N3CCN(C(=O)c4ccc(Cl)cc4)CC3)cc2NC1=O (configuration not stated),6.6 µM (active)
6,CCS(=O)(=O)N1CCc2ccc(NC(=O)Nc3ccc(Cl)cc3)cc21,14.3 µM (inactive)
7,COc1cc2nccc(Oc3ccc(NC(=O)Nc4cc(C)on4)c(Cl)c3)c2cc1OC [TIVOZANIB],6.7 µM (active)
8,O=C(Nc1cccnc1)N1CCN(c2ccc(S(=O)(=O)N3CCOCC3)cn2)CC1,2.5 µM (active)
9,CCNC(=O)c1noc(-c2cc(Cl)c(O)cc2O)c1-c1ccc(OC)cc1,0.1 µM (active)
10,Cn1ncnc2c(=O)n(C)c(=O)nc1-2,0.2 µM (active)
11,C1=CC[C@@H](CNC2CCN(Cc3ccccc3)CC2)CC1,13 µM (active)
12,Cc1cc(F)c(C(=O)Nc2cccc(-c3nncn3C(C)C)n2)cc1-n1cnc(C2CC2)c1 [SELONSERTIB],12.3 µM (active)
13,Cc1noc(C)c1CC(=O)Nc1nc(-c2ccc(S(=O)(=O)N(C)C)cc2)cs1,4.3 µM (active)
14,CCOc1ncccc1C(=O)Nc1cc(F)ccc1F,1.3 µM (active)
15,N#Cc1cc(NC[C@H](O)c2ccco2)nc2ccc(Cl)cc12,1.3 µM (active)
16,COc1cc(/C=C2\CCCN([C@@H](C)c3ccc(F)cc3)C2=O)ccc1-n1cnc(C)c1,12.8 µM (active)
17,CCCc1ccc(-c2ccc(N(C[C@@H](N)[C@@H](C)CC)C(=O)[C@@H]3C[C@H]3c3ccccn3)cc2)cc1,1.6 µM (active)
18,COCCN1CCCC(CNC2CCN(c3ccccc3Cl)CC2)C1 (configuration not stated),5.2 µM (active)
19,C[C@]12CCC3[C@@H](CC[C@]4(O)C[C@@H](O)CC[C@]34C=O)[C@@]1(O)CC[C@@H]2C1=CC(=O)OC1 (some centres not stated),0.4 µM (active)
20,COc1ccc(C(O)CN2CCN(c3cc(C)ccc3C)CC2)cc1OC (configuration not stated),10.2 µM (active)
21,Cc1cccc(NC(=O)C2CCN(S(=O)(=O)c3ccc4c(c3)CC(C)N4C(=O)C3CC3)CC2)n1 (configuration not stated),1.7 µM (active)
22,Cc1cc(C)nc(-n2ncc(Cl)c(Cl)c2=O)n1,3.8 µM (active)
23,O=C(CCCCCn1sc2ccccc2c1=O)Nc1ccc2c(c1)OCO2,3.5 µM (active)

row,Structure (SMILES),CC50
1,O=c1c2ccccc2[se]n1-c1ccccc1 [EBSELEN],28.4 µM (inactive)
2,COc1ccc(-c2nnc(Cn3ncc(Cl)c(Cl)c3=O)o2)cc1,0.9 µM (active)
3,CC(=O)Nc1ccc(NC(=O)c2c(O)c3sccc3n(Cc3ccccc3)c2=O)cc1,50 µM (inactive)
4,Cc1cc(C)cc(NC(=O)CC2CCCN(c3cn[nH]c(=O)c3)C2)c1 (configuration not stated),2.4 µM (active)
5,COc1ccc2nc(NC(=O)CN3C(=O)c4ccccc4S3(=O)=O)sc2c1,14.8 µM (inactive)
6,COc1ccccc1C(=O)Nc1cc2c(cc1N1CCNC[C@H]1C)n(C)c(=O)n2C,16.9 µM (inactive)
7,CCN1CCN(c2ccc(C(=O)Nc3nc(-c4cccnc4)cs3)cc2)CC1,5.8 µM (active)
8,CN(C)C/C=C/C(=O)Nc1ccc(C(=O)Nc2cccc(Nc3ncc(Cl)c(-c4c[nH]c5ccccc45)n3)c2)cc1,< 0.1 µM (active)
9,CCn1c(=O)c(-c2ccc(Cl)cc2Cl)cc2cnc(Nc3ccc(N4CCNCC4)c(F)c3)nc21,1.5 µM (active)
10,CON(C)C(=O)CSc1nc2sc(C)c(C)c2c(=O)n1Cc1ccccn1,0.6 µM (active)
11,CNC(=O)c1nnn(-c2ccc3ncccc3c2)c1C,2.2 µM (active)
12,COc1cc2c3c(n(CCCNCCO)c(=O)c2cc1OC)-c1cc2c(cc1C3=O)OCO2,1.1 µM (active)
13,O=S(=O)(c1ccc(F)cc1)N1CCN(c2ccc(Nc3ccncc3)nn2)CC1,13.6 µM (inactive)
14,N#CCCn1c(=O)c(C(=O)NCCCc2ccccc2)c(O)c2ccccc21,5.9 µM (active)
15,OCCN1CCN(CCCN2c3ccccc3Sc3ccc(Cl)cc32)CC1 [PERPHENAZINE],3.4 µM (active)
16,Cc1csc(NC(=O)CC[C@@H]2NC(=O)N(CCc3cccc(F)c3)C2=O)n1,8.9 µM (active)
17,C[C@]1(O)C[C@@H](c2nc(-c3ccc4ccc(-c5ccccc5)nc4c3)c3c(N)nccn32)C1 [LINSITINIB],5.3 µM (active)
18,CC[C@H](CO)Nc1nc(NCc2ccccc2)c2ncn(C(C)C)c2n1 [SELICICLIB],7.8 µM (active)
19,NC1CCN(S(=O)(=O)c2ccc([C@H]3[C@@H]4CCCC[C@@H]43)cc2)CC1,12 µM (active)
20,Cc1occc1C(=O)Nc1ccc(N2CCCC2)cn1,8.8 µM (active)
21,C[C@H](O)CN1CCC(CNCc2ccc(Cl)cc2)CC1,7.6 µM (active)
22,O=C(NCc1ccc(S(=O)(=O)c2cc(F)cc(F)c2)cc1)c1ccc2nccn2c1,< 0.1 µM (active)
23,CC(C)CCn1c(SCC(=O)NCCN(C(C)C)C(C)C)nc2ccccc2c1=O,12.5 µM (active)

row,Structure (SMILES),CC50
1,O=C1Nc2cc(Br)ccc2/C1=C1/Nc2ccccc2/C1=N\O [6BIO],26.5 µM (inactive)
2,O=C(CCC1CCCN(c2cc(NC3CC3)ncn2)C1)N1CCN(c2ccc(F)cc2)CC1 (configuration not stated),9.1 µM (active)
3,CN(C)/C=C/C=C/C=C/C1=[N+](C)c2ccccc2C1(C)C,10.3 µM (active)
4,Cc1cc(F)ccc1N1CCC(N[C@@H]2CCOC[C@H]2OCC2CC2)CC1,15.6 µM (inactive)
5,CC(=O)N1CCCSc2ccc(S(=O)(=O)N3CCN(c4ccc(F)cc4)CC3)cc21,7.5 µM (active)
6,CC(C)CCNC(=O)COc1ccc(-c2nc(C(C)C)no2)cc1,3.2 µM (active)
7,O=C(Nc1cccnn1)N1CCC(=Cc2cccc(Oc3ccc(C(F)(F)F)cn3)c2)CC1,7.5 µM (active)
8,COc1ccc(C(=O)N2CCN(c3ncnc4cccc(F)c34)CC2)cc1,9.4 µM (active)
9,Fc1ccc(C(CCNC[C@@H]2[C@H]3CNC[C@@H]23)c2ccco2)cc1 (some centres not stated),7.1 µM (active)
10,Cc1noc(C2CN(C3CCCC3)CCCN2C(=O)c2ccccc2)n1 (configuration not stated),6.6 µM (active)
11,CN(C)c1nc(Nc2ccc(O)cc2)nc2ccccc12,9.7 µM (active)
12,CCc1n[nH]cc1C(=O)N[C@H]1CC[C@H](Nc2nccc(-c3ccccn3)n2)C1,3.9 µM (active)
13,CCN(C(=O)c1ccco1)c1nc2ccccc2s1,0.9 µM (active)
14,COc1ccc(C(=O)Nc2nc3cc4c(cc3s2)OCCO4)cn1,50 µM (inactive)
15,CN[C@@H](C)C(=O)N[C@H](C(=O)N1CCC[C@H]1c1nc(C(=O)c2ccc(F)cc2)cs1)C1CCCCC1 [LCL-161],6.8 µM (active)
16,O=S(=O)(NCCNC/C=C/c1ccc(Br)cc1)c1cccc2cnccc12,9.7 µM (active)
17,Cc1ccccc1C[C@H](C)NCCN1CCC(N(C)C)CC1,13.7 µM (inactive)
18,CC(C)(C)NC(=O)[C@@H]1C[C@@H]2CCCC[C@@H]2CN1CC(O)[C@H](Cc1ccccc1)NC(=O)[C@@H](CC(N)=O)NC(=O)c1ccc2ccccc2n1 (some centres not stated),15.7 µM (inactive)
19,CCN(c1ccc(C(=O)Nc2ccccc2O)cc1)C(C)C,11.9 µM (active)
20,CNc1snc(C)c1C(=O)N[C@@H](C)c1ccc2c(c1)OCCCO2,4.2 µM (active)
21,Cc1ccc(S(=O)(=O)N2CCN(c3cc(-n4ccnc4C)ncn3)CC2)cc1C,5.1 µM (active)
22,Cc1cc(=O)n2nc(Sc3ncc4ccccn34)sc2n1,12.1 µM (active)
23,CN1CCN(Cc2ccc(NC(=O)c3n[nH]cc3Nc3ncnc4[nH]ccc34)cc2)CC1,1.1 µM (active)
